Assay [1] concerns the target T1, DLK (Homo sapiens, UniProt Q12852).
T1 sequence (Q12852 1-859): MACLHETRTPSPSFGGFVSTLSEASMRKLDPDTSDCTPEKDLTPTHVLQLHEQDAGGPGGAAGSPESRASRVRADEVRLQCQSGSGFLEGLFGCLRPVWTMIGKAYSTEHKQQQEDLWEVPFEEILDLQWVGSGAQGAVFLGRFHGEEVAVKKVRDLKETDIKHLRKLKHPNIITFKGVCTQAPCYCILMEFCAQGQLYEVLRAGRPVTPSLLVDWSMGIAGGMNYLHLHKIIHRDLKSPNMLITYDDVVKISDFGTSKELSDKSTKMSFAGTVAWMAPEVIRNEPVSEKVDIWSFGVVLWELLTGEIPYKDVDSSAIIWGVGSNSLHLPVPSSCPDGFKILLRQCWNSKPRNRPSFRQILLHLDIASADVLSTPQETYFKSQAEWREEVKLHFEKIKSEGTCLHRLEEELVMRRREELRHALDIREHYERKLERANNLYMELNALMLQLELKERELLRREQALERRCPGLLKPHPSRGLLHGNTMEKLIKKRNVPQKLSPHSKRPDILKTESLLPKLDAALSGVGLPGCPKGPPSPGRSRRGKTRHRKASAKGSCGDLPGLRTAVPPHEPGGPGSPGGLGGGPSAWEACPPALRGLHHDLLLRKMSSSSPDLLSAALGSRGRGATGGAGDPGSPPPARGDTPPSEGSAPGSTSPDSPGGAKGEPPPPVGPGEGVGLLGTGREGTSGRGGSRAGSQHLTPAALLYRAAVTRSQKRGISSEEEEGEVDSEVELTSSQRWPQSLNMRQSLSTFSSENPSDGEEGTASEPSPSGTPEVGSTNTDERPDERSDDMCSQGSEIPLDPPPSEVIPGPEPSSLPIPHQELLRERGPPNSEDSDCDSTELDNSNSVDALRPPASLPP
Details: method as in earlier work. Particulars: Table S1; cited from earlier work.

The target of assay [2] is T2, DMPK (Homo sapiens, UniProt Q09013).
T2 construct: purchased DiscoveRx KINOMEscan (Ambit Biosciences)
T2 sequence (Q09013 1-629): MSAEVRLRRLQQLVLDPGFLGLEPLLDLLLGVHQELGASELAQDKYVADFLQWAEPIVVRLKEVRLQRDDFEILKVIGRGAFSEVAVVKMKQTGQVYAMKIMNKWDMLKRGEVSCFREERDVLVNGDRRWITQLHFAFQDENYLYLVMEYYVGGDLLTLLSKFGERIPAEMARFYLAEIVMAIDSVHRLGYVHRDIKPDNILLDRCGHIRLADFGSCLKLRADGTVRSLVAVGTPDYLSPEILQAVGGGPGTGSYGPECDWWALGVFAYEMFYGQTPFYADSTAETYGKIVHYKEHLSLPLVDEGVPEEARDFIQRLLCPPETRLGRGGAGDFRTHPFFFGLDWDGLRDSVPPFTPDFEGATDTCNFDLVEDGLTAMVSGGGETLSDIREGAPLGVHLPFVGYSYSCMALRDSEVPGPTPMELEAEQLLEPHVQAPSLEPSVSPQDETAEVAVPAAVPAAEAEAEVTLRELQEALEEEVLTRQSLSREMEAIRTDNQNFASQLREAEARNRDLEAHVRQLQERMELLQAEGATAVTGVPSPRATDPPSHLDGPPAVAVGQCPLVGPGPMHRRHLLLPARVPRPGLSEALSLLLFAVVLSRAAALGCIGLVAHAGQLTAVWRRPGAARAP
Details: method as in earlier work. To be noted: Table S1; cited from earlier work.

Assay [3] deals with T3, ANKK1 (Homo sapiens, UniProt Q8NFD2).
T3 construct: purchased DiscoveRx KINOMEscan (Ambit Biosciences)
As to the kind of experiment: KINOMEscan panel screen. Particulars: read-out: Percent Control(%). The assay is classed as binding.

Assay [4] addresses T4, EIF2AK1 (Homo sapiens, UniProt Q9BQI3).
T4 construct: purchased DiscoveRx KINOMEscan (Ambit Biosciences)
As to the kind of experiment: KINOMEscan panel screen. Type of assay: binding. To be noted: read-out: Percent Control(%).

Assay [5] addresses T5, HIPK2 (Homo sapiens, UniProt Q9H2X6).
T5 construct: purchased DiscoveRx KINOMEscan (Ambit Biosciences)
The experiment in a line: KINOMEscan panel screen. The assay is classed as binding. Particulars: read-out: Percent Control(%).

Assay [6] concerns the target T6, INSRR (Homo sapiens, UniProt P14616).
T6 construct: purchased DiscoveRx KINOMEscan (Ambit Biosciences)
The experiment in a line: KINOMEscan panel screen. Type of assay: binding. Particulars: read-out: Percent Control(%).

For assay [7], the target named is T7, KIT (Homo sapiens, UniProt P10721).
T7 construct: DNA tag (qPCR read-out); purchased Ambit Biosciences (KINOMEscan service)
The experiment in a line: KINOMEscan panel screen. The assay is classed as binding. To be noted: read-out: Percent Control(%).

Assay [8] concerns the target T8, MAP4K3 (Homo sapiens, UniProt Q8IVH8).
T8 construct: purchased DiscoveRx KINOMEscan (Ambit Biosciences)
As to the kind of experiment: KINOMEscan panel screen. Type of assay: binding. To be noted: read-out: Percent Control(%).

Assay [9] deals with T9, MAP4K4 (Homo sapiens, UniProt O95819).
T9 construct: purchased DiscoveRx KINOMEscan (Ambit Biosciences)
As to the kind of experiment: KINOMEscan panel screen. Particulars: read-out: Percent Control(%). The assay is classed as binding.

Assay [10] deals with T10, MLK2 (Homo sapiens, UniProt Q02779).
T10 construct: purchased DiscoveRx KINOMEscan (Ambit Biosciences)
The experiment in a line: KINOMEscan panel screen. Particulars: read-out: Percent Control(%). The assay is classed as binding.

For assay [11], the target named is T11, NEK2 (Homo sapiens, UniProt P51955).
T11 construct: purchased DiscoveRx KINOMEscan (Ambit Biosciences)
As to the kind of experiment: KINOMEscan panel screen. The assay is classed as binding. Particulars: read-out: Percent Control(%).

In assay [12] the target is T12, OSR1 (Homo sapiens, UniProt O95747).
T12 construct: purchased DiscoveRx KINOMEscan (Ambit Biosciences)
As to the kind of experiment: KINOMEscan panel screen. Type of assay: binding. Particulars: read-out: Percent Control(%).

In assay [13] the target is T13, PRKD2 (Homo sapiens, UniProt Q9BZL6).
T13 construct: purchased DiscoveRx KINOMEscan (Ambit Biosciences)
The experiment in a line: KINOMEscan panel screen. Type of assay: binding. To be noted: read-out: Percent Control(%).

Assay [14] addresses T14, PRKG2 (Homo sapiens, UniProt Q13237).
T14 construct: purchased DiscoveRx KINOMEscan (Ambit Biosciences)
The experiment in a line: KINOMEscan panel screen. Type of assay: binding. Particulars: read-out: Percent Control(%).

Assay [15] concerns the target T15, STK39 (Homo sapiens, UniProt Q9UEW8).
T15 construct: purchased DiscoveRx KINOMEscan (Ambit Biosciences)
As to the kind of experiment: KINOMEscan panel screen. The assay is classed as binding. Particulars: read-out: Percent Control(%).

Assay [16] concerns the target T16, TAK1 (Homo sapiens, UniProt O43318).
T16 construct: purchased DiscoveRx KINOMEscan (Ambit Biosciences)
As to the kind of experiment: KINOMEscan panel screen. Type of assay: binding. Particulars: read-out: Percent Control(%).

Assay [17] has as its target T17, TNNI3K (Homo sapiens, UniProt Q59H18).
T17 construct: purchased DiscoveRx KINOMEscan (Ambit Biosciences)
The experiment in a line: KINOMEscan panel screen. Type of assay: binding. Particulars: read-out: Percent Control(%).

In assay [18] the target is T18, ULK3 (Homo sapiens, UniProt Q6PHR2).
T18 construct: purchased DiscoveRx KINOMEscan (Ambit Biosciences)
As to the kind of experiment: KINOMEscan panel screen. Type of assay: binding. Particulars: read-out: Percent Control(%).

Assay [19] concerns the target T19, WNK3 (Homo sapiens, UniProt Q9BYP7).
T19 construct: purchased DiscoveRx KINOMEscan (Ambit Biosciences)
As to the kind of experiment: KINOMEscan panel screen. The assay is classed as binding. To be noted: read-out: Percent Control(%).

In assay [20] the target is T20, ZAP70 (Homo sapiens, UniProt P43403).
T20 construct: purchased DiscoveRx KINOMEscan (Ambit Biosciences)
As to the kind of experiment: KINOMEscan panel screen. The assay is classed as binding. Particulars: read-out: Percent Control(%).

Assay [21] has as its target T7, KIT. The experiment in a line: KINOMEscan kinase binding assay (Kd).
Assay [22] concerns the target FLT3-D835H (Homo sapiens, UniProt P36888, D835H). As to the kind of experiment: KINOMEscan panel screen. The assay is classed as binding. Also noted: purchased DiscoveRx KINOMEscan (Ambit Biosciences). To be noted: read-out: Percent Control(%).

Our source for the IC50, remaining binding and Kd values is PMC4620497 (Scientific Reports, 2015).

What is called IC50 is the point on the concentration scale where inhibition reaches its midpoint. The term Kd denotes a measure of binding affinity in units of concentration.

T7 sequence (P10721 26-976): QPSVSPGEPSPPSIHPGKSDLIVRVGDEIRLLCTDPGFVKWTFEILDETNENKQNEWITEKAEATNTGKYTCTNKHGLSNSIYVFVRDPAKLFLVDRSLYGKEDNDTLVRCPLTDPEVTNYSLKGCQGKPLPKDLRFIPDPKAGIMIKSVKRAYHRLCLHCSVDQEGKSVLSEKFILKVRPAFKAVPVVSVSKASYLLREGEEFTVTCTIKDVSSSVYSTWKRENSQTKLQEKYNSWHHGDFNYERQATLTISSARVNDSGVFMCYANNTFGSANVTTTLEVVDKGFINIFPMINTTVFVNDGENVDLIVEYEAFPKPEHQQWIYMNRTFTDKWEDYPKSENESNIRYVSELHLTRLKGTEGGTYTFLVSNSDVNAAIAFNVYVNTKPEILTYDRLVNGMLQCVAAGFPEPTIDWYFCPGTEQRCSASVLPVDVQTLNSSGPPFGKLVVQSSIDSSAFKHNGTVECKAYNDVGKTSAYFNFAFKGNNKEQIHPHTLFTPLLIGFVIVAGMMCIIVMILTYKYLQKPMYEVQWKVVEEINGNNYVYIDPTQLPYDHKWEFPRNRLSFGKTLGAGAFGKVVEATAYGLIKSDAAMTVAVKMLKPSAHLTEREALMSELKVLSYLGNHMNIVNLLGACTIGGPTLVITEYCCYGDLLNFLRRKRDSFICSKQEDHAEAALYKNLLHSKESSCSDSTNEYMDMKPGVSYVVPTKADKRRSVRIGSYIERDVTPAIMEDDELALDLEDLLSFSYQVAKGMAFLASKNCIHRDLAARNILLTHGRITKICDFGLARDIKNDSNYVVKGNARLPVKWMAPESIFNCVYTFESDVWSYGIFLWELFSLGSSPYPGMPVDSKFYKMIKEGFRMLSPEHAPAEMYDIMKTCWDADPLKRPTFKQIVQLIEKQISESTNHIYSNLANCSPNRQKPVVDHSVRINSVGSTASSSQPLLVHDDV
T19 sequence (Q9BYP7 whole entry): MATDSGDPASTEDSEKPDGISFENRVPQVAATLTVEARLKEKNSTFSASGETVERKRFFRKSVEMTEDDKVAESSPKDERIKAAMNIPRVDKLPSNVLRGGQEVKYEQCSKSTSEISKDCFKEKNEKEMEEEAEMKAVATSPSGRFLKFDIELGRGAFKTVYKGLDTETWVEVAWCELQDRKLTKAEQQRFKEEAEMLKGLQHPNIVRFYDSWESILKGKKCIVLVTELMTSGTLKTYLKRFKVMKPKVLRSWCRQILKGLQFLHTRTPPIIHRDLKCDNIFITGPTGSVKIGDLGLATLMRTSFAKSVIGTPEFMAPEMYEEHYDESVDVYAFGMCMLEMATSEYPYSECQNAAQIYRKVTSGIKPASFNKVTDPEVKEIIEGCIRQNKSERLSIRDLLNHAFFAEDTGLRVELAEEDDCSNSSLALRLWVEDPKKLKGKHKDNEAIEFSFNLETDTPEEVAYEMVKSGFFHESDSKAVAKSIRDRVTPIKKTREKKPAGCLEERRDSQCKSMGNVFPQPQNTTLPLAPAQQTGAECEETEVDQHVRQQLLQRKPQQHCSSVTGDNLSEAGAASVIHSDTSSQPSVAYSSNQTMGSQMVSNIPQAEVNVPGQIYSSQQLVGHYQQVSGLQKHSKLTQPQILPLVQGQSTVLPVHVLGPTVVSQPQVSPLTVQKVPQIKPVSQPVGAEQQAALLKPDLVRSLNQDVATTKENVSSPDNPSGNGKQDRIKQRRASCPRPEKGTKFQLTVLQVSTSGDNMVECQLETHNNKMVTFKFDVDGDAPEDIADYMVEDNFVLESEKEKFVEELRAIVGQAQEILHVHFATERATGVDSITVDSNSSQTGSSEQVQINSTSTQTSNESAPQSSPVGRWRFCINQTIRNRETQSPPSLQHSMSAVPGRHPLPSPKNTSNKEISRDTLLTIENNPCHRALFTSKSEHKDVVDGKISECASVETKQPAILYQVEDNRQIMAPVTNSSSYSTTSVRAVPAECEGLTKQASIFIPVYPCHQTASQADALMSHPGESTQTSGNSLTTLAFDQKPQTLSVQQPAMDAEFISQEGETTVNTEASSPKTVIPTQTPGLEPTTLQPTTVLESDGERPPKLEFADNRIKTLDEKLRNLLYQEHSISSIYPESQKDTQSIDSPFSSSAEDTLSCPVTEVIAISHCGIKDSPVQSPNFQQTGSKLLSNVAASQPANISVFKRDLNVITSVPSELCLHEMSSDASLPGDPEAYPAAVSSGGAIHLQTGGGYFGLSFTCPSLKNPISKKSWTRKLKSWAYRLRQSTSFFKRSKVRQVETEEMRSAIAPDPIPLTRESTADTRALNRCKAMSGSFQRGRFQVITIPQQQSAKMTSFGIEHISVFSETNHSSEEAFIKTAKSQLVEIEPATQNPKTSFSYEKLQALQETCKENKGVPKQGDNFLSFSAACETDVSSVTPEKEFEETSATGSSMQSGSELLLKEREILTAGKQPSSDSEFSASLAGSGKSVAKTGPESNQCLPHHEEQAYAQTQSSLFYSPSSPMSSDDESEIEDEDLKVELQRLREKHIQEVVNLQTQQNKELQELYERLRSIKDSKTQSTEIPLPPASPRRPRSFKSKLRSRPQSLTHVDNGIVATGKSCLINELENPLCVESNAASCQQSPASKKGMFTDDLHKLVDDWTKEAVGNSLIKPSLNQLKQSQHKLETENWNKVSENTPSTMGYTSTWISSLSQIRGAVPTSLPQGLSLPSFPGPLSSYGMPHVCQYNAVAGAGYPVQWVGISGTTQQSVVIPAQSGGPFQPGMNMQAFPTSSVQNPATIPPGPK
T13 sequence (Q9BZL6 whole entry): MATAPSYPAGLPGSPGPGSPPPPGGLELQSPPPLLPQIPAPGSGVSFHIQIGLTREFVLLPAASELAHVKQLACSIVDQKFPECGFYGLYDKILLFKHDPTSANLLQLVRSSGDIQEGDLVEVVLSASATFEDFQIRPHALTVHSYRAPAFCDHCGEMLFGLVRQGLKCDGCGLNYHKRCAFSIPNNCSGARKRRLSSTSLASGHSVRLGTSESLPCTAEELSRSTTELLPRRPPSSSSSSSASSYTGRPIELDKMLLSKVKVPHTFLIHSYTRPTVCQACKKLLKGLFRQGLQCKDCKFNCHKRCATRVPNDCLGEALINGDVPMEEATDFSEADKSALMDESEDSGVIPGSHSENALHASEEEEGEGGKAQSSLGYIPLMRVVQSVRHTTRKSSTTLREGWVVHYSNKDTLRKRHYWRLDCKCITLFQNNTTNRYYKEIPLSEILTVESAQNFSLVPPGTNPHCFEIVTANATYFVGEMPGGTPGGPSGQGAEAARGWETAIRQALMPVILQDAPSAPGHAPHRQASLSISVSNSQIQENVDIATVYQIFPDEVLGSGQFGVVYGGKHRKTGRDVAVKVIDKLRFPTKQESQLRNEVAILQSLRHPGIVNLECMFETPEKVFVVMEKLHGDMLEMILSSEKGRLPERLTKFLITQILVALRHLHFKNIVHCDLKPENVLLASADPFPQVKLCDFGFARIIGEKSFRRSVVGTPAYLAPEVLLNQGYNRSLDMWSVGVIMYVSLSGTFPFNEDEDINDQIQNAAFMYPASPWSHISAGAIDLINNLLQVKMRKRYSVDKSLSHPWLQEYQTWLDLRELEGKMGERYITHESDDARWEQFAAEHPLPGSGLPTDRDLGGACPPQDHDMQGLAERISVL
T10 sequence (Q02779 whole entry): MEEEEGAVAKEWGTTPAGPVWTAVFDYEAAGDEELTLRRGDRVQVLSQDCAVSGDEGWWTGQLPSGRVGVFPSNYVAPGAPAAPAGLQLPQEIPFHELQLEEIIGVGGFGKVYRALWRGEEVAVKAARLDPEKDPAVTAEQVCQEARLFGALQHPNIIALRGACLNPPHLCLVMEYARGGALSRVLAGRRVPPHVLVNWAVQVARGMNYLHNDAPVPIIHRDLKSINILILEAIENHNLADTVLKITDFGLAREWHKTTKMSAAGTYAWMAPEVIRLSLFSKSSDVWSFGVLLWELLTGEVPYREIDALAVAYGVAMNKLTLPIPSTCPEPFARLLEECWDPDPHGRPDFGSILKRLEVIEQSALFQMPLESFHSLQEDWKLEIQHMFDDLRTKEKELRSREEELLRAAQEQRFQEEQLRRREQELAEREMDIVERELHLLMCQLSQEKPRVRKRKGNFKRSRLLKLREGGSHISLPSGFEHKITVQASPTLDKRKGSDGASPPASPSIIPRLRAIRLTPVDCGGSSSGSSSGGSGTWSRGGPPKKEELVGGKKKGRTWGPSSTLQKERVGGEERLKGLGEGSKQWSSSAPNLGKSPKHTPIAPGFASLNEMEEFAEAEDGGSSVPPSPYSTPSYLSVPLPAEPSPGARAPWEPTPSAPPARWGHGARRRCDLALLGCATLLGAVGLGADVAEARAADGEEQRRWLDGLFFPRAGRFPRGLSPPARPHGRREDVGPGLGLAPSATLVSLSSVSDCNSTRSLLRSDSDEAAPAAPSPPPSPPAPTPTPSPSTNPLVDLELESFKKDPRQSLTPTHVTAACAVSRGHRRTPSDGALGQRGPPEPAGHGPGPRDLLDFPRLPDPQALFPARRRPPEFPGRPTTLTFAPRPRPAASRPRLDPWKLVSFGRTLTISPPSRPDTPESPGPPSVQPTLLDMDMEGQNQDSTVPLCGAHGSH
T11 sequence (P51955 whole entry): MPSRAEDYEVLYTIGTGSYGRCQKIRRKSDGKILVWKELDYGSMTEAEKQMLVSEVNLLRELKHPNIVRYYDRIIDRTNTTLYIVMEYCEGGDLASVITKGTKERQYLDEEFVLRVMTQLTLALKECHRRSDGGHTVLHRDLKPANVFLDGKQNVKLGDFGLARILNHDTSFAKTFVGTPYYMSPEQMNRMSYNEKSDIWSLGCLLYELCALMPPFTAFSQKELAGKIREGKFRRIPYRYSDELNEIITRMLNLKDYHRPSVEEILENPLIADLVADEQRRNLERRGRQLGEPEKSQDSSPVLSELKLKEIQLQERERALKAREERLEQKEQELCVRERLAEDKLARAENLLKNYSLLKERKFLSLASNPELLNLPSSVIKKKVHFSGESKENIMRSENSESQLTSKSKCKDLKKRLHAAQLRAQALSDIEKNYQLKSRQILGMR

On to `O=C(Nc1ccc(Oc2ncnc3[nH]ncc23)cc1)Nc1ccc(Cl)c(C(F)(F)F)c1` [Compound 1, 1-(4-(1H-pyrazolo[3,4-d]pyrimidin-4-yloxy)phenyl)-3-(4-chloro-3-(trifluoromethyl)phenyl)urea], for which the IC50 in assay [1] and in assay [2] was > 10 µM throughout.
On to `CC(C)(C)c1cc(NC(=O)Nc2ccc(Oc3ncnc4[nH]ncc34)c(F)c2)no1` [SKLB-677, 1-(4-(1H-pyrazolo[3,4-d]pyrimidin-4-yloxy)-3-fluorophenyl)-3-(5-tert-butylisoxazol-3-yl)urea], for which the remaining binding at 10 µM turned out to be 57% in assay [3]; 96% in assay [4]; 4.4% in [5]; 42% in assay [6]; 0% in assay [7]; 3.2% in assay [8]. In addition, the remaining binding at 10 µM is 0% in assay [9]; 99% in assay [10]; 100% in assay [11]; 36% in assay [12]; 28% in assay [13]; 100% in [14]. Besides, the remaining binding at 10 µM in [15] came to 100%; in assay [16], 100%; in assay [17], 0%; in assay [18], 51%; in [19], 100%; in assay [20] it was 100%. For the same molecule, in [22], the remaining binding at 10 µM came out at 0%. The Kd in assay [21] is 0.0031 µM.
